Positions count from the first letter of the chain named. Numbers in names are those of the source. Entries after “also recorded” stand apart in the source; their conditions may differ.
Legend:
NKT cells [1] = assay: CD1d tetramers loaded with FVIII peptides incubated with spleen CD4+ T cells of FVIII-immunized hemophilia A mice, Facs; type: cell-based; conditions: for binding of CD1d tetramers loaded with peptide: spleen CD4+ T cells of hemophilia A mice injected IV with FVIII 2 IU on 4 occasions, 15 aminoacid long peptides
Experimental: To determine whether these sequences could activate NKT cells in vivo, FVIII (2 IU) was injected intravenously to hemophilia A mice on 4 occasions separated by a 1-week interval. Hemophilia A mice produce no FVIII due to a stop codon introduced in the FVIII gene in exon 16.
Mice were sacrificed 10 days after the last injection, the spleen was removed and CD4+ T cells were prepared by magnetic bead sorting. NKT cells are characterized by expression of CD4 and recognition of antigen presented by CD1d molecule. A tetramer of CD1d was obtained from a commercial supplier and loaded with 15 aminoacid long FVIII peptides, which included peptides containing SEQ ID1, SEQ ID2 and SEQ ID3.
Hemophilia A mice were immunized with 2 IU Factor VIII on 4 occasions separated by one week. The spleen was then removed and CD4+ T cells were prepared by magnetic bead sorting. A fluorochrome-labeled tetramer of CD1d was obtained from a commercial supplier and loaded with 15 aminoacid long FVIII peptides, which included peptides containing SEQ ID1, ID2 and ID3. Loading was carried out at room temperature overnight in the dark.
Tetramers were then incubated for 30 minutes at 4° C. with the CD4+ T cell population and the cell suspension was analyzed by Facs.

hemophilia A mice = assay: direct immunization of hemophilia A mice with peptides containing a CD1d motif; type: in vivo; conditions: direct immunization with peptide
Experimental: Hemophilia A mice were immunized 3 times subcutaneously with 50 μg of an equimolar mixture of peptides of SEQ ID1 (44pept) and peptide of SEQ ID2 (256pept) adsorbed on aluminum hydroxyde. A control group received physiological serum instead of peptides. Plasma was taken 10 days after the last immunization and assessed for the presence of anti-Factor VIII antibodies, using a direct binding assay. Briefly, Factor VIII (10 IU/ml) was insolubilized on polystyrene plates, which were washed and incubated with a 1/10 dilution of plasma. After a further washing, a HRP-labeled goat anti-mouse antiserum was added, followed by an enzyme substrate. Colour development was read as OD.

NKT cells [2] = assay: activation of NKT cells in vitro by human dendritic cells loaded with peptide or polypeptide; type: cell-based
Experimental: (§1) Synthetic peptides corresponding to SEQ ID9 and SEQ ID10 were produced. Their capacity to activate NKT cells was determined in vitro using human dendritic cells derived from peripheral blood monocytes of an individual sensitized to Mal d 1. Dendritic cells loaded with each one of the two peptides were incubated in the presence of NKT cells obtained from the same individual by sorting peripheral lymphocytes using specific markers such as CD4 and NKG2D.
(§2) As for Mal d 1, human CD1d tetramers loaded with a synthetic peptide representing the motif identified in the polypeptide of […]

NKT cells [3] = assay: human CD1d tetramers loaded with peptides, recognition by NKT cells; type: cell-based; conditions: Mal d 1 peptides
Experimental: as §1, §2

NKT cells [4] = assay: human CD1d tetramers loaded with IgG peptides, peripheral blood CD4+ T cells of patients given a therapeutic antibody (facs); type: cell-based; conditions: patients injected with a therapeutic antibody during the previous 5 days
Experimental: Synthetic peptides corresponding to SEQ ID18, SEQ ID19 and SEQ ID20 were produced and used to load human CD1d tetramers as for the examples above (see for instance example 4 for allergen Der p 1). Peripheral blood cells were obtained by venous puncture of patients who had received an injection of a therapeutic antibody during the previous 5 days. CD4+ T cells were purified by magnetic bead sorting. The cells were then incubated with tetramers loaded with peptides of SEQ ID18, SEQ ID19 or SEQ ID20. Analysis by facs identifies a significant proportion of NKT cells (±10%) labeled by tetramers.

CD4+ NKT cells = assay: intranasal Der p 1 in BALB/c mice, spleen CD4+ T cells stained with peptide-loaded CD1d tetramers (facs); type: in vivo; conditions: for percentage of CD4+ T cells stained with CD1d tetramers loaded with peptide: mice given natural sequence Der p 1 intranasally, 100 μg
Experimental: Peptides of SEQ ID13, SEQ ID14 and SEQ ID15 were synthesized and used to load CD1d tetramers.
BALB/c mice were submitted to intranasal administration of Der p 1, using 50 μl of saline containing 100 μg of Der p 1. This challenge procedure was repeated twice on three consecutive days at one-week interval. The mice were sacrificed 5 days after the last nasal instillation and the spleen was removed. CD4+ T cells were purified by magnetic bead sorting and incubated in the presence of the CD1d tetramers loaded with peptides of SEQ ID13, SEQ ID14 or SEQ ID15. By fluorescence-activated cell sorter (facs) determination, it was observed that a significant percentage of cells (±10%) were stained with the tetramers, identifying them as CD4+ NKT cells. It was therefore concluded that peptides of SEQ ID13, SEQ ID14 and SEQ ID15 were functional in binding to CD1d and in being recognized by NKT cells.
Next, a mutated form of Der p 1 was prepared by genetic engineering, in which the 3 aminoacid residues predicted to be in position P1 for CD binding of peptides of SEQ ID13, SEQ ID14 and SEQ ID15 were substituted by serine. The mutated Der p 1 (SEQ ID16) was used for nasal instillation as described above with Der p 1 in natural sequence (SEQ ID17).

NKT cells [5] = assay: JAWS2 cells loaded with Der p 1, production of IFN-gamma and IL-4 as markers of NKT activation; type: cell-based; conditions: JAWS2 cells loaded with the protein; cells from mice immunized with natural sequence Der p 1
Experimental: CD4+ T cells obtained from the above experiments were incubated in culture medium in the presence of an antigen-presenting cell which expresses the CD1d molecule. […] JAWS2 cells were loaded with Der p 1 and presentation of Der p 1-derived epitopes by CD1d was evaluated by measuring the production of cytokines such as IFN-gamma and IL-4 as markers of NKT activation.
Further, mutated Der p 1 (SEQ ID16) was used to load JAWS2 cells and tested for its capacity to activate NKT cells. For this experiment, NKT cells were used as obtained from mice immunized with Der p 1 in either natural or mutated configuration. The production of IFN-gamma and IL-4 was taken as an indication of NKT activation.

[6] = dendritic cells and NKT cells of an individual sensitized to Mal d 1
[7] = alpha-gliadin polypeptide presented by antigen-presenting dendritic cells, same procedure as for Mal d 1

## FCHISSH (listed as Homo sapiens) [SEQ ID1, FVIII A1 domain aminoacids 309-315 CD1d motif; tested as 15 aminoacid long FVIII peptide containing it]
NKT cells [1]; FIG. 1, CD4+ T cells of hemophilia A mice immunized with Factor VIII
  % of NKT cells recognizing peptide-loaded CD1d tetramers: Up to 45%
NKT cells [1]
  binding of CD1d tetramers loaded with peptide: Significant binding
Hemophilia A mice
  activation of NKT cells: sufficient as to elicit the activation of NKT cells; also recorded: Prominent activation

## FHAINGY [SEQ ID3, FVIII A3 domain aminoacids 1918-1924 CD1d motif; tested as 15 aminoacid long FVIII peptide containing it]
NKT cells [1]
  binding of CD1d tetramers loaded with peptide: Significant binding
Hemophilia A mice
  activation of NKT cells: sufficient as to elicit the activation of NKT cells

## FKLIESY (listed as Malus domestica) [SEQ ID9, synthetic peptide, aminoacids 144-150 of Mal d 1]
NKT cells [2]; [6]
  activation of NKT cells: activated a significant proportion of NKT cells
NKT cells [3]
  recognition of peptide-loaded human CD1d tetramers by NKT cells: recognized by a significant proportion of NKT cells

## FRVVSVL (listed as Homo sapiens) [SEQ ID19, CH2 of IgG2 and IgG3]
NKT cells [4]
  proportion of NKT cells labeled by tetramers: ~10%

## FSGVAAT (listed as Dermatophagoides pteronyssinus) [SEQ ID13, aminoacids 38-44 of Der p 1]
CD4+ NKT cells
  percentage of CD4+ T cells stained with CD1d tetramers loaded with peptide: ~10%

## FWKVQHH (listed as Homo sapiens) [SEQ ID2, FVIII A3 domain aminoacids 1816-1822 CD1d motif; tested as 15 aminoacid long FVIII peptide containing it]
NKT cells [1]
  binding of CD1d tetramers loaded with peptide: Significant binding
Hemophilia A mice
  activation of NKT cells: sufficient as to elicit the activation of NKT cells

## HEALHNH (listed as Homo sapiens) [SEQ ID20, CH3 loop of IgG1, IgG2 and IgG4]
NKT cells [4]
  proportion of NKT cells labeled by tetramers: ~10%

## HSAIAAVI (listed as Dermatophagoides pteronyssinus) [SEQ ID14, aminoacids 135-141 of Der p 1]
CD4+ NKT cells
  percentage of CD4+ T cells stained with CD1d tetramers loaded with peptide: ~10%

## SKLIESS (listed as Malus domestica) [SEQ ID10, synthetic peptide of Mal d 1 motif with F144S and Y150S mutations]
NKT cells [2]; [6]
  activation of NKT cells: did not
NKT cells [3]
  proportion of NKT cells recognizing peptide-loaded human CD1d tetramers: less than 1%

## YPYVVIL (listed as Dermatophagoides pteronyssinus) [SEQ ID15, aminoacids 216-222 of Der p 1]
CD4+ NKT cells
  percentage of CD4+ T cells stained with CD1d tetramers loaded with peptide: ~10%

## YRVVSVL (listed as Homo sapiens) [SEQ ID18, CH2 of IgG1 and IgG4]
NKT cells [4]
  proportion of NKT cells labeled by tetramers: ~10%

B1: SEQ ID11: alpha-gliadin polypeptide, natural sequence with CD1d binding motif (protein, listed as Homo sapiens)
chain: MVRVPVPQLQPQNPSQQQPQEQVPLVQQQQFPGQQQPFPPQQPYPQPQPFPSQQPYLQLQPFPQPQLPYPQPQLPYPQPQLPYPQPQPFRPQQPYPQSQPQYSQPQQPISQQQQQQQQQQQQKQQQQQQQQILQQILQQQLIPCRDVVLQQHSIAYGSSQVLQQSTYQLVQQLCCQQLWQIPEQSRCQAIHNVVHAIILHQQQQQQQQQQQQPLSQVSFQQPQQQYPSGQGSFQPSQQNPQAQGSVQPQQLPQFEEIRNLALETLPAMCNVYIPPYCTIAPVGIFGTNYR
NKT cells [2]; [7]
  activation of NKT cells: activated a significant proportion of NKT cells

B2: SEQ ID12: mutated form of alpha-gliadin in which the F residue of the motif was substituted by S (protein, listed as Homo sapiens)
chain: B1 chain with Y56S, Y167S, H191S, F254S, Y276S
NKT cells [2]; [7]
  activation of NKT cells: failed to do so

B3: Der p 1: cysteine protease, main allergen of house dust mite D. pteronyssinus, natural sequence (protein, listed as Dermatophagoides pteronyssinus)
chain: ETNACSINGNAPAEIDLRQMRTVTPIRMQGGCGSCWAFSGVAATESAYLAYRNQSLDLAEQELVDCASQHGCHGDTIPRGIEYIQHNGVVQESYYRYVAREQSCRRPNAQRFGISNYCQIYPPNVNKIREALAQTHSAIAVIIGIKDLDAFRHYDGRTIIQRDNGYQPNYHAVNIVGYSNAQGVDYWIVRNSWDTNWGDNGYGYFAANIDLMMIEEYPYVVIL
NKT cells [5]
  NKT activation (production of IFN-gamma and IL-4): significant production of cytokines

B4: SEQ ID16: mature Der p 1 with P1 anchoring residues F38S, H135S and Y216S mutated (protein, listed as Dermatophagoides pteronyssinus)
chain: B3 chain with F38S, H136S, Y217S
CD4+ NKT cells; mice given the protein by nasal instillation
  binding of CD4+ T cell splenocytes to tetramers loaded with peptide of SEQ ID13, SEQ ID14 or SEQ ID15: no significant binding
NKT cells [5]
  NKT activation (production of IFN-gamma and IL-4): failed to be activated
